Test [1] deals with SKBR3 cells. Kind of test: Cell proliferation (Cell Titer Glow), SKBR3. To be noted: Homo sapiens, SK-BR-3; IG compounds, cell killing, 72 h. The class given is cell-based. The procedure:
(§1) Exemplary isoindolinone-glutarimide (IG) compounds of Table 1a, 1b and 1c were prepared and characterized according to the Examples herein. Certain exemplary IG compounds of(Table 1a were tested for their effects in inhibiting cellular proliferation, including CAL1 WSU-DLCL2, NCI-N87 and SKBR3. CAL51 is a human breast adenocarcinoma cell line with triple-negative status for expression of estrogen, progesterone and HER2 receptors. WSU-DLCL2 is a human B-Cell non-Hodgkin lymphoma cell line that expresses high levels of CD22. NCI-N87 is a human epithelial cell line established from a gastric carcinoma; SKBR3 is a human epithelial cell line established from a breast adenocarcinoma; both NCI-N87 and SKBR3 cell lines express high levels of HER2 receptor. […]
(§2) One day prior to treatment with compounds or IGAC, cells were plated in white 96-well plates (SKBR: 3000 cells/well; CAL-51: 4000 cells/well). Compounds or ADCs were added in a serial-dilution manner reaching the indicated concentrations. Plates were incubated at 37 degrees for 96h (ADCs) or 72h (compounds) whereafter a 1:10 dilution of Cell Titer Glow was used to measure relative cell numbers after 10 min of incubation at room temperature.
In general terms: In ATP-based viability assays light output follows the ATP content of the culture.

Test [2] relates to CAL51 cells. Kind of test: Cell proliferation (Cell Titer Glow), CAL51. The class given is cell-based. The conditions noted are these: Homo sapiens, CAL-51; IG compounds, cell killing, 72 h. The procedure: as §1, §2
The test system of test [3] is SKBR3 cells. Kind of test: Degradation assay evaluated by immunofluorescence staining, SKBR3. The class given is cell-based. To be noted: Homo sapiens, SK-BR-3, SKBR3, 6 h. As for the experimental part: (§3) One day prior to treatment with compounds, black 96 well plates were coated with fibronectin (0.2 μg/ml in PBS) for 45 min at room temperature and subsequently washed with PBS. CAL-51 or SKBR3 cells were seeded at 30K cells/well (1001) and incubated overnight at 37° C. whereafter compounds were added reaching indicated concentrations. 6 h after treatment the medium was removed, cells were washed with PBS and fixed with 10% formalin for 20 mins at room temperature. Following two PBS washes (150 μl), cells were permeabilized in 0.1% Triton X-100 in PBS for 8 mins at room temperature and subsequently washed again twice with PBS. Cells were blocked thereafter with 1% BSA in PBS for 45 mins. Primary antibody was diluted in blocking buffer and incubated with the cells overnight at 4° C. After three washes with PBS, cells were incubated with secondary antibody for 1 h at RT, washed and subsequently images were taken on an Operetta High-Content Imager.
(§4) For the determination of the DC50, a custom algorithm implemented in the PerkinElmer image analysis software Harmony-Acapella® was used.

Test [4] has as its system CAL51 cells. The experiment in a line: Degradation assay evaluated by immunofluorescence staining, CAL51. The class given is cell-based, human. The conditions noted are these: Homo sapiens, CAL-51, CAL51, 6 h. As for the experimental part:
as §3, §4

The test system of the next test is WSU-DLCL2 cells. Kind of test: Cell proliferation (Cell Titer Glow), WSU-DLCL2. To be noted: Homo sapiens, WSUDLCL2; IG compounds, cell killing, 72 h. It is filed as cell-based. As for the experimental part:
(§5) Exemplary isoindolinone-glutarimide (IG) compounds of Table 1a, 1b and 1c were prepared and characterized according to the Examples herein. Certain exemplary IG compounds of(Table 1a were tested for their effects in inhibiting cellular proliferation, including CAL1 WSU-DLCL2, NCI-N87 and SKBR3. CAL51 is a human breast adenocarcinoma cell line with triple-negative status for expression of estrogen, progesterone and HER2 receptors. WSU-DLCL2 is a human B-Cell non-Hodgkin lymphoma cell line that expresses high levels of CD22. NCI-N87 is a human epithelial cell line established from a gastric carcinoma; SKBR3 is a human epithelial cell line established from a breast adenocarcinoma; both NCI-N87 and SKBR3 cell lines express high levels of HER2 receptor.
(§6) Exemplary embodiments of the isoindolinone-glutarimide antibody conjugates (IGAC) of Formula I are compiled in Table 3. Assessment of IGAC biological activity and other properties may be conducted according to the methods of Example 102. In some instances, the Cell proliferation dose response IC50 value is an average of repetitive assays. Certain exemplary IGAC were tested for their effects in inhibiting cellular proliferation, including CAL51; WSU-DLCL2, NCI-N87 and SKBR3 cell lines. CAL51 is a human breast adenocarcinoma cell line with triple-negative status for expression of estrogen, progesterone and HER2 receptors. WSU-DLCL2 is a human B-Cell non-Hodgkin lymphoma cell line that expresses high levels of CD22. NCI-N87 is a human epithelial cell line established from a gastric carcinoma; SKBR3 is a human epithelial cell line established from a breast adenocarcinoma; both NCI-N87 and SKBR3 cell lines express high levels of HER2 receptor.
On the day of treatment, 10,000 suspension cells/well were plated in white 96-well plates. Compounds or ADCs were added in a serial-dilution manner reaching the indicated concentrations. Plates were incubated at 37 degrees for 72 h whereafter a 1:10 dilution of Cell Titer Glow was used to measure relative cell numbers after 10 min of incubation at room temperature.

Another test concerns NCI-N87 cells. The experiment in a line: Cell proliferation (Cell Titer Glow), NCI-N87. It is filed as cell-based. To be noted: Homo sapiens, IG compounds, cell killing, 72 h. As for the experimental part: as §5, §6
One day prior to treatment with compounds or IGAC, cells were plated in white 96-well plates (SKBR: 3000 cells/well; CAL-51: 4000 cells/well). Compounds or ADCs were added in a serial-dilution manner reaching the indicated concentrations. […]

Some results are limits rather than exact numbers.

`Cc1ccc(NC(=O)NCc2ccc3c(c2)CN(C2CCC(=O)NC2=O)C3=O)cc1Cl` (centres unmarked) [IG-1, 1-(3-chloro-4-methyl-phenyl)-3-[[2-(2,6-dioxo-3-piperidyl)-1-oxo-isoindolin-5-yl]methyl]urea]: the IC50 (in general, the concentration at which inhibition is half-maximal) amounted to 1.77 nM in the test with SKBR3 cells [1], 10.8 nM in the test on CAL51 cells [2], 1.23 nM in the test on WSU-DLCL2 cells and 1.48 nM with NCI-N87 cells. Moreover, the DC50 (commonly the concentration at which degradation of the target reaches its halfway point) in the test on SKBR3 cells [3] was below 0.7 nM; in the test on CAL51 cells [4], 3.24 ± 2.18 nM. For the same compound, the Dmax (commonly the greatest extent of degradation seen) in the test on SKBR3 cells [3] was 95.5 ± 4.9%; in the test with CAL51 cells [4], 101 ± 4.45%.

Consider `O=C1CCC(N2Cc3c(ccc(CNC(=O)Nc4cccc(C5(C(F)(F)F)CC5)c4)c3O)C2=O)C(=O)N1` (centres unmarked) [IG-42, 1-((2-(2,6-dioxopiperidin-3-yl)-4-hydroxy-1-oxoisoindolin-5-yl)methyl)-3-(3-(1-(trifluoromethyl)cyclopropyl)phenyl)urea], for which the half-inhibitory concentration (IC50) was 2.73 nM in the test with SKBR3 cells [1], 25 nM with CAL51 cells [2], 1.43 nM with WSU-DLCL2 cells and 2.57 nM in the test with NCI-N87 cells. Also, the values for the DC50 in the test with SKBR3 cells [3] and in the test with CAL51 cells [4] were 2 nM and below 5.41 nM, respectively. Moreover, the Dmax in the test with SKBR3 cells [3] was 88.6%; with CAL51 cells [4], 96.1 ± 5.89%.

Turning to `Cc1ccc(NC(=O)NCc2ccc3c(c2O)CN(C2CCC(=O)NC2=O)C3=O)cc1C(C)C` (centres unmarked) [IG-50], the IC50 amounted to 1.38 nM with SKBR3 cells [1], 0.75 nM in the test with WSU-DLCL2 cells and 1.63 nM with NCI-N87 cells. The DC50 with SKBR3 cells [3] was below 0.645 nM; in the test on CAL51 cells [4], 6.21 nM. In addition, the figures for the Dmax in the test on SKBR3 cells [3] and with CAL51 cells [4] were 99.6 ± 0.614% and 105%, respectively.

Values taken from patent US20260335453A1, “ISOINDOLINONE-GLUTARIMIDE ANTIBODY CONJUGATES, AND USES THEREOF” (FIREFLY BIO, INC., priority 2023, published 2026).
